Measurements: patent US9289403B2, “Use of modafinil to treat spasticity” (The Board of Trustees of the University of Arizona, priority 2007, dated 2016)
“Also recorded” adds a separate entry of the source.

Tests used:
[1] = system: cortical cells, inferior olivary cells and thalamic reticular cells; conditions: cited from earlier work
[2] = system: H-reflex (hyper-reflexia) in spinally transected rats; assay: H-reflex frequency-dependent depression in spinally transected rats; assay type: in vivo, rat; conditions: no exercise, 3 mg/Kg/day modafinil p.o. for 30 days, measured 30 days after transection, compared with Tx-30, MBET 30 and control
Method: Adult female Sprague-Dawley rats (Harlan, 200-250 g, n=40) underwent a lower thoracic laminectomy under ketamine (60 mg/kg, i.m.) and xylazine (10 mg/kg, i.m.) anesthesia. A complete transection (Tx) of the spinal cord was made by aspiration and the transected ends of the cord retracted, producing a 2-3 mm cavity. Gelfoam was inserted into the cavity to facilitate hemostasis and the dura was closed over the Tx site. Muscle and skin were sutured in separate layers, and animals were provided with dextrose-saline (5%, 1 ml/100 g body weight, s.c.) to replace fluid lost during the surgical procedure. […] Animals were monitored for signs of urinary tract infection, and treatment with Baytril (enroflaxin 0.2 mg/day, i.m. for 10 days) was instituted as needed. […]
Stimulation of the tibial nerve under the calcaneal tendon produced two responses, an early M-wave (2 ms latency), produced by direct activation of motoneuronal axons in the tibial nerve, and a later H-reflex (8 ms latency), produced by activation of muscle afferents in the tibial nerve, which synapse monosynaptically on plantar motoneurons. The degree of stimulation that induced frequency-dependent depression of the H-reflex was determined. […] The change in the response at various frequencies was calculated as the percent of the response at 0.2 Hz in order to determine depression of the H-reflex as a function of stimulation frequency. […]

NC(=O)C[S+]([O-])C(c1ccccc1)c1ccccc1 (centres unmarked) [modafinil]
electrical coupling [1]: increases electrical coupling | H-reflex amplitude at stimulation frequencies from 0.2 to 10 Hz (habituation / hyper-reflexia) [2]: as effective as passive exercise in normalizing exaggerated reflexes; also recorded: decreased (normalized) the H-reflex amplitude to the same extent as 30 days of exercise; also recorded: the reflexes were normalized; also recorded: effective in reducing hyper-reflexia after spinal transection
